Publication PMC4696824 (PLoS ONE, 2015)

What was measured:
[1] = biological target: T1, cathepsin B-like cysteine peptidase (DCcathB) (Diaphorina citri, UniProt A0A0U4DX43); assay: fluorogenic inhibition assay, Z-F-R-AMC substrate, purified recombinant enzyme; format: biochemical
T1 construct: mature peptide residues 70 to 374
T1 sequence (A0A0U4DX43 70-374): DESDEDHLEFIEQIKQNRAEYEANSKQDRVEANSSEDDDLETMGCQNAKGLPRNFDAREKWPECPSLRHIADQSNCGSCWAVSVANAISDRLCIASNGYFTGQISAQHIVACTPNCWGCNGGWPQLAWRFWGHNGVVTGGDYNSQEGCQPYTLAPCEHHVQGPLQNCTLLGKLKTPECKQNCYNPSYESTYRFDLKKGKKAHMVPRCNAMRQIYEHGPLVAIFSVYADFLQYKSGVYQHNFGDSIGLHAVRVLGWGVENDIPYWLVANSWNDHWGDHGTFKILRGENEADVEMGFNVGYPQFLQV

[2] = substrate: Cc1cc(=O)oc2cc(NC(=O)[C@H](CCCNC(=N)N)NC(=O)[C@H](Cc3ccccc3)NC(=O)OCc3ccccc3)ccc12; assay: fluorogenic substrate hydrolysis, Km, purified recombinant enzyme; format: biochemical, Diaphorina citri
[3] = substrate: Cc1cc(=O)oc2cc(NC(=O)[C@H](CCCNC(=N)N)NC(=O)[C@H](CCCNC(=N)N)NC(=O)OCc3ccccc3)ccc12; assay: as above; format: biochemical, Diaphorina citri

CCCNC(=O)[C@H]1O[C@@H]1C(=O)N[C@H](C(=O)N1CCC[C@H]1C(=O)O)[C@@H](C)CC [CA-074, N-(l-3-trans-propylcarbamoyloxirane-2-carbonyl)-L-isoleucyl-L-proline]
IC50 [1]: 0.095 nM

CC(C)C[C@H](NC(=O)[C@H]1O[C@@H]1C(=O)O)C(=O)NCCCCN=C(N)N [E-64, L-trans-Epoxysuccinyl-leucylamido(4-guanidino)butane]
IC50 [1]: 14 nM

B1: cathepsin B-like cysteine peptidase (DCcathB) (Diaphorina citri) (protein)
chain: T1 sequence (A0A0U4DX43 70-374)
notes: mature peptide residues 70 to 374
Km [2]: 23.5 µM | Km [3]: 6.13 µM
